Results reported in patent US6410587B1, “Compounds and therapies for the prevention of vascular and non-vascular pathologies” (NeoRx Corporation, priority 1997, dated 2002).

What was measured:
[1] = cited from earlier work; for covalent (hepatic) DNA adducts: rat, in vivo
NFkB = NFkB translocation (p65 immunostaining) and kB-luciferase reporter activity in human SMCs; assay type: cell-based; conditions: 20 ng/ml
Text: In cells which had been transfected with a reporter construct which has three consensus kB DNA elements fused to the luciferase gene, the amount of light which was produced when the cell lysate was exposed to luciferin and ATP was proportional to NFkB activity.

| NFkB translocated to the nucleus (NFkB; 6 hours at 37° C.) [%] | increase in NFkB activity (NFkB; 6 hours, luciferase reporter) [fold] | Molecule | covalent (hepatic) DNA adducts [1] | long-term carcinogenicity ([1]; rats) |
| --- | --- | --- | --- | --- |
| – | – | CC/C(=C(/c1ccc(I)cc1)c1ccc(OCCN(C)C)cc1)c1ccccc1 [4-iodotamoxifen] | absence of DNA adducts | – |
| > 80 | 19 | TNF-alpha | – | – |
| – | – | CN(C)CCOc1ccc(/C(=C(/CCCl)c2ccccc2)c2ccccc2)cc1 [Toremifene, toremifene] | very low level | non-carcinogenic |
